The record followed here is patent US8674095B2, “Compounds for treating neuropsychiatric conditions” (Afraxis Holdings, Inc., priority 2008, dated 2014).

The structures appear in SMILES notation.

One test deals with PAK2 (Homo sapiens, UniProt Q13177). As to the kind of experiment: Z'Lyte fluorescence-based (FRET) kinase assay, PAK2. The test is classed as biochemical. As to conditions: 75 μM ATP (Km apparent), 1 hr room temperature, 1% DMSO. As for the experimental part: (§1) A fluorescence-based assay format is used to determine IC50 values of test compounds in vitro. Purified PAK kinase is incubated with ATP, and a test compound at various concentrations and a substrate peptide containing two fluorophores. In a second step, the reaction mix is incubated with a site-specific protease that cleaves non-phosphorylated but not phosphorylated substrate peptide, disrupting the FRET signal generated by the two fluorophores in the cleaved peptide (Z′Lyte™ Kinase assay platform; Life Technologies).
Sequence of PAK2 (Q13177 whole entry): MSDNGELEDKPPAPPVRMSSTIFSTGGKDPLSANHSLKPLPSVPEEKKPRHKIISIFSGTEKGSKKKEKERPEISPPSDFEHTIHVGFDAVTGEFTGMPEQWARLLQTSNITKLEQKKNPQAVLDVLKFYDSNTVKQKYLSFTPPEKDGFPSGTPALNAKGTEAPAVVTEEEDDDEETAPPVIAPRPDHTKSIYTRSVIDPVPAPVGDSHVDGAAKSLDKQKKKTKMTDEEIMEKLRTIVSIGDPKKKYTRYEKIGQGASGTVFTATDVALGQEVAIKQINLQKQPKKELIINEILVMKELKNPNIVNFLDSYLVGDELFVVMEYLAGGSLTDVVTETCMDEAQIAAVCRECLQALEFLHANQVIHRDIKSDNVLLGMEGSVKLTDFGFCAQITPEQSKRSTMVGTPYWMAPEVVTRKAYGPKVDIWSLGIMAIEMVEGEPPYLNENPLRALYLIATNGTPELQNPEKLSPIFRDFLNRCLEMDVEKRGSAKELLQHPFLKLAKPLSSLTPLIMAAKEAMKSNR
(§2) Reagents: 50 mM HEPES, pH 7.5; 0.01% BRIJ-35; 10 mM MgCl2; 1 mM EGTA, 2 uM substrate peptide Ser/Thr20 (proprietary Life Technologies Sequence), PAK enzyme [2.42-30.8 ng for PAK1, 0.29-6 ng for PAK2, 1.5-20 ng for PAK3 and 0.1-0.86 ng for PAK4; actual enzyme amounts depend on lot activity of the enzyme preparation]
(§3) Test compounds are dissolved in DMSO at various concentrations; the final DMSO concentration in the assay reaction is 1%.
(§4) ATP concentration at Km apparent is used in the assay [50 μM ATP for PAK1 assay, 75 μM ATP for PAK2 assay, 100 μM ATP for PAK3 assay, 5 μM ATP for PAK-4 assay] in a total assay volume of […] Assay reactions are incubated at room temperature for 1 hr. Following the kinase reaction, 5 μl of 1:256 dilution of development solution A (Life Technologies) is added and the reaction mix is incubated for an additional 1 hr at room temperature.
(§5) Plates are analyzed in a standard fluorescence plate reader (Tecan or equivalent) using an excitation wavelength of 400 nm and emission wavelengths of 445 nm and 520 nm. Inhibition of kinase reaction is determined by emission ratio=emission@445 nm/emission@520 nm

Another test has as its target PAK4 (Homo sapiens, UniProt O96013). As to the kind of experiment: Z'Lyte fluorescence-based (FRET) kinase assay, PAK4. The class given is biochemical. As to conditions: 5 μM ATP (Km apparent), 1 hr room temperature, 1% DMSO. As for the experimental part: as §1, §2, §3, §4, §5
The subject of test [1] is Wistar rat pups injected with tetanus toxin. As to conditions: in vivo.
The subject of another test is PAK1, PAK2, PAK3, PAK-4. As to the kind of experiment: PAK isoform inhibition profile of example compounds. The test is classed as biochemical. As to conditions: classification of example compounds in the description; underlying IC50 data in Table 8.
Description: In some embodiments, the PAK inhibitor is a Group I PAK inhibitor that inhibits, for example, one or more Group I PAK polypeptides, for example, PAK1, PAK2, and/or PAK3. […] In some embodiments, the PAK inhibitor is a PAK2 inhibitor. In some embodiments, the PAK inhibitor is a PAK3 inhibitor. In some embodiments, the PAK inhibitor is a mixed PAK1/PAK3 inhibitor. […] In some embodiments, the PAK inhibitor is a Group II PAK inhibitor that inhibits one or more Group II PAK polypeptides, for example PAK-4, PAK5, and/or PAK6. In some embodiments, the PAK inhibitor is a PAK4 inhibitor. In some embodiments, the PAK inhibitor is a PAK5 inhibitor. In some embodiments, the PAK inhibitor is a PAK6 inhibitor.
as §1, §2, §3, §4, §5

A further test concerns the target PAK1 (Homo sapiens, UniProt Q13153). As to the kind of experiment: Z'Lyte fluorescence-based (FRET) kinase assay, PAK1. As to conditions: 50 μM ATP (Km apparent), 1 hr room temperature, 1% DMSO. The class given is biochemical. As for the experimental part: as §1, §2, §3, §4, §5
For another test, the target named is PAK3 (Homo sapiens, UniProt O75914). As to the kind of experiment: Z'Lyte fluorescence-based (FRET) kinase assay, PAK3. The test is classed as biochemical. The conditions noted are these: 100 μM ATP (Km apparent), 1 hr room temperature, 1% DMSO. As to the method: as §1, §2, §3, §4, §5
Sequence of PAK3 (O75914 whole entry): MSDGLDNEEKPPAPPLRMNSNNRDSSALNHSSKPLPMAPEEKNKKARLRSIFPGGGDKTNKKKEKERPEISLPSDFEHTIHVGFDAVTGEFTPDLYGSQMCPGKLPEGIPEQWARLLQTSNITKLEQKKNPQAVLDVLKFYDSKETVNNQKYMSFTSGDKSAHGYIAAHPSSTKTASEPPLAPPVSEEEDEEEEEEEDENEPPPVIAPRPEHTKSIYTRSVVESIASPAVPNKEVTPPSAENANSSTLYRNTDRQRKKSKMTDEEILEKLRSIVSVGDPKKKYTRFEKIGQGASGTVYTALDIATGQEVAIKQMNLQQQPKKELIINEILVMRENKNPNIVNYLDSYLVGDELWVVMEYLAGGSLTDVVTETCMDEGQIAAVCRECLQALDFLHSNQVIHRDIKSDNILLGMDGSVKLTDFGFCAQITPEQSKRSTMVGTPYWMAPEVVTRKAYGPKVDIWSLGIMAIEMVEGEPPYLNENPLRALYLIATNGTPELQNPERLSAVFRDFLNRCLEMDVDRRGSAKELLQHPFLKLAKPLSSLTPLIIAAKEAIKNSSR

In general, IC50 refers to the midpoint of a concentration-inhibition curve.

Sequence of PAK1 (Q13153 whole entry): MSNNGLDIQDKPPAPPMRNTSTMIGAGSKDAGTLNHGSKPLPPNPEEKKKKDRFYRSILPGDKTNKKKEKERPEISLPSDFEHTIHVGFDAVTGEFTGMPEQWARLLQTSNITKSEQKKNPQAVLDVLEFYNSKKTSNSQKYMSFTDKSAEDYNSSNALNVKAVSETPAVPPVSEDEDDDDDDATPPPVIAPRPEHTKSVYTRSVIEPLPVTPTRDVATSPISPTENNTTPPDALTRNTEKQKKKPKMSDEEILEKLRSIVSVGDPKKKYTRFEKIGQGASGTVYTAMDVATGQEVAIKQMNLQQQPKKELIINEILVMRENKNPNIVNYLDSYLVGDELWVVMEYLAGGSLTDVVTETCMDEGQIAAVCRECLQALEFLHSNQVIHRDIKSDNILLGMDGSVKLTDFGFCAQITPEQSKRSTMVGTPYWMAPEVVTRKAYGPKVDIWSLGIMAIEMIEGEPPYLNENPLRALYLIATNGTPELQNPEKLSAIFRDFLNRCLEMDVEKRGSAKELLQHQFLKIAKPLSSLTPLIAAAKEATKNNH
Sequence of PAK4 (O96013 whole entry): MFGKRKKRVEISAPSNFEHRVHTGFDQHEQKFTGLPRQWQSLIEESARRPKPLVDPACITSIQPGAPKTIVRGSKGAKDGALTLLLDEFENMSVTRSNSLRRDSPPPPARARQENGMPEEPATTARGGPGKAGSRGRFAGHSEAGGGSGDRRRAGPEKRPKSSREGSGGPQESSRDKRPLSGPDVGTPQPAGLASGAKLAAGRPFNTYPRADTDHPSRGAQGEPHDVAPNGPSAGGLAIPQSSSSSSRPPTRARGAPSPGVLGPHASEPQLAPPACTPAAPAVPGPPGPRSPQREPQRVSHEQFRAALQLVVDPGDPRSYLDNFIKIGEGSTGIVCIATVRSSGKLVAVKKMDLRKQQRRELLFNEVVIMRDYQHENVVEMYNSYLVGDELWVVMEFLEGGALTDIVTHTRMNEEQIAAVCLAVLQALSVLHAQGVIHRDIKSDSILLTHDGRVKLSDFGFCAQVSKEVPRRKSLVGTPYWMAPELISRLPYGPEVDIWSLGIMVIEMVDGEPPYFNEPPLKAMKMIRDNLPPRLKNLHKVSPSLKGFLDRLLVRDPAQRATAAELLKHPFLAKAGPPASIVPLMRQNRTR

Turning to `CN1CCN(c2ccc(Nc3ncc4ccc(=O)n([C@H]5CCCc6ccccc65)c4n3)cc2)CC1` [Compound 12], the IC50 is 1000 to 10000 nM at PAK2, 1000 to 10000 nM at PAK4, less than 1000 nM on PAK1 and 1000 to 10000 nM on PAK3. Further, in test [1], the Effect on seizures result is “reduce the frequency and severity of seizures”. The “PAK inhibitor type (isoform profile)” value in the test with PAK1, PAK2, PAK3, PAK-4 is on record as “PAK1 inhibitor”.

In the case of `CN1CCN(c2ccc(Nc3ncc4ccc(=O)n(Cc5c(F)cccc5Br)c4n3)cc2)CC1` [Compound 79], the IC50 at PAK2, on PAK4, on PAK1 and at PAK3 was less than 1000 nM in each case. The “PAK inhibitor type (isoform profile)” value with PAK1, PAK2, PAK3, PAK-4 is listed as “mixed PAK1/PAK2/PAK3/PAK-4 inhibitor”.

Regarding `CN1CCN(c2ccc(Nc3ncc4ccc(=O)n(Cc5c(Cl)cccc5C5CC5)c4n3)cc2)CC1` [Compound 84], the 50% inhibitory concentration (IC50) is less than 1000 nM at PAK2, 1000 to 10000 nM at PAK4, less than 1000 nM on PAK1 and less than 1000 nM on PAK3. Also, in the test with PAK1, PAK2, PAK3, PAK-4, the “PAK inhibitor type (isoform profile)” value is “inhibits all three Group I PAK isoforms (PAK1, 2 and PAK3) with equal or similar potency”.

For `CN1CCN(c2ccc(Nc3ncc4ccc(=O)n(Cc5ccccc5S(C)(=O)=O)c4n3)cc2)CC1` [Compound 72], the half-inhibitory concentration (IC50) on PAK2, at PAK4, on PAK1 and on PAK3 was less than 1000 nM throughout. The “PAK inhibitor type (isoform profile)” value in the test with PAK1, PAK2, PAK3, PAK-4 is “mixed PAK1/PAK2/PAK3/PAK-4 inhibitor”.

As to `O=c1ccc2cnc(Nc3ccc(N4CCNCC4)c(F)c3)nc2n1Cc1ccccc1C(F)(F)F` [Compound 62], the half-inhibitory concentration (IC50) on PAK2, on PAK4, on PAK1 and on PAK3 was less than 1000 nM each time. The “PAK inhibitor type (isoform profile)” value with PAK1, PAK2, PAK3, PAK-4 is “mixed PAK1/PAK2/PAK3/PAK-4 inhibitor”.

For `CN1CCN(c2ccc(Nc3ncc4ccc(=O)n(Cc5ccccc5C5CC5)c4n3)cc2)CC1` [Compound 81, 8-(2-cyclopropylbenzyl)-2-(4-(4-methylpiperazin-1-yl)phenylamino)pyrido[2,3-d]pyrimidin-7(8H)-one], the IC50 on PAK2, on PAK4, at PAK1 and on PAK3 was less than 1000 nM each time. For the same compound, the “PAK inhibitor type (isoform profile)” value in the test on PAK1, PAK2, PAK3, PAK-4 was “mixed PAK1/PAK2/PAK3/PAK-4 inhibitor”.

Consider `O=c1ccc2cnc(Nc3ccc(N4CCNCC4)c(F)c3)nc2n1Cc1ccccc1-c1cccs1` [Compound 78], for which the IC50 on PAK2, at PAK4, at PAK1 and on PAK3 was less than 1000 nM in each case. Further, in the test on PAK1, PAK2, PAK3, PAK-4, the “PAK inhibitor type (isoform profile)” value is “mixed PAK1/PAK2/PAK3/PAK-4 inhibitor”.

As for `NCCNc1ccc(-c2ccnc(Nc3ccc(N4CCNCC4)cc3)n2)cn1` [Compound 111], the concentration for half-maximal inhibition (IC50) was 1000 to 10000 nM at PAK2, less than 1000 nM at PAK4, less than 1000 nM at PAK1 and 1000 to 10000 nM on PAK3. The “PAK inhibitor type (isoform profile)” value with PAK1, PAK2, PAK3, PAK-4 is given as “mixed PAK1/PAK-4 inhibitor”.

Turning to `CC(C)Oc1ccccc1Cn1c(=O)ccc2cnc(Nc3ccc(N4CCN(C)CC4)cc3)nc21` [Compound 69], the 50% inhibitory concentration (IC50) at PAK2, at PAK4, at PAK1 and on PAK3 was less than 1000 nM in each case. Moreover, the “PAK inhibitor type (isoform profile)” value with PAK1, PAK2, PAK3, PAK-4 is given as “mixed PAK1/PAK2/PAK3/PAK-4 inhibitor”.

`CN1CCN(c2ccc(Nc3ncc4ccc(=O)n(Cc5c(F)cccc5Cl)c4n3)cc2)CC1` [Compound 53]: the IC50 at PAK2, at PAK4, on PAK1 and at PAK3 was less than 1000 nM throughout. In the test with PAK1, PAK2, PAK3, PAK-4, the “PAK inhibitor type (isoform profile)” value is reported as “mixed PAK1/PAK2/PAK3/PAK-4 inhibitor”.

In the case of `CN1CCN(c2ccc(Nc3ncc4ccc(=O)n(Cc5ccccc5S(=O)(=O)N5CCOCC5)c4n3)cc2)CC1` [Compound 74], the IC50 on PAK2, on PAK4, at PAK1 and at PAK3 was less than 1000 nM in each case. The “PAK inhibitor type (isoform profile)” value in the test on PAK1, PAK2, PAK3, PAK-4 is given as “mixed PAK1/PAK2/PAK3/PAK-4 inhibitor”.

Consider `CN1CCN(c2ccc(Nc3ncc4ccc(=O)n(Cc5c(F)cccc5F)c4n3)cc2)CC1` [Compound 58], for which the half-inhibitory concentration (IC50) is 1000 to 10000 nM at PAK2, 1000 to 10000 nM at PAK4, less than 1000 nM at PAK1 and 1000 to 10000 nM on PAK3. The “PAK inhibitor type (isoform profile)” value in the test on PAK1, PAK2, PAK3, PAK-4 was “PAK1 inhibitor”.

Turning to `CN1CCN(c2ccc(Nc3ncc4ccc(=O)n(Cc5ccccc5-c5cccs5)c4n3)cc2)CC1` [Compound 77], the half-maximal inhibitory concentration (IC50) at PAK2 was less than 1000 nM; on PAK4, 1000 to 10000 nM; on PAK1, less than 1000 nM; at PAK3, less than 1000 nM. Further, in the test with PAK1, PAK2, PAK3, PAK-4, the “PAK inhibitor type (isoform profile)” value was “inhibits all three Group I PAK isoforms (PAK1, 2 and PAK3) with equal or similar potency”.

Regarding `CN1CCN(c2ccc(Nc3ncc4ccc(=O)n(Cc5c(Cl)cccc5Cl)c4n3)cc2)CC1` [Compound 57], the IC50 was less than 1000 nM at PAK2, less than 1000 nM at PAK4, less than 1000 nM at PAK1 and 1000 to 10000 nM at PAK3. Also, in the test with PAK1, PAK2, PAK3, PAK-4, the “PAK inhibitor type (isoform profile)” value is listed as “mixed PAK1/PAK2/PAK-4 inhibitor”.

Take `COc1cccc(F)c1Cn1c(=O)ccc2cnc(Nc3ccc(N4CCN(C)CC4)cc3)nc21` [Compound 61]: the IC50 at PAK2 is 1000 to 10000 nM; at PAK4, less than 1000 nM; on PAK1, less than 1000 nM; at PAK3, 1000 to 10000 nM. In addition, the “PAK inhibitor type (isoform profile)” value with PAK1, PAK2, PAK3, PAK-4 is reported as “mixed PAK1/PAK-4 inhibitor”.

As to `CN1CCN(c2ccc(Nc3ncc4ccc(=O)n(Cc5ccccc5-c5ccccc5)c4n3)cc2)CC1` [Compound 68], the IC50 was less than 1000 nM on PAK2, 1000 to 10000 nM at PAK4, less than 1000 nM at PAK1 and less than 1000 nM on PAK3. Also, the “PAK inhibitor type (isoform profile)” value with PAK1, PAK2, PAK3, PAK-4 was “inhibits all three Group I PAK isoforms (PAK1, 2 and PAK3) with equal or similar potency”.

`CN1CCN(c2ccc(Nc3nccc(-c4ccc(NCCN)nc4)n3)cc2F)CC1` [Compound 113]: the concentration for half-maximal inhibition (IC50) was 1000 to 10000 nM on PAK2, less than 1000 nM at PAK4, less than 1000 nM on PAK1 and 1000 to 10000 nM at PAK3. The “PAK inhibitor type (isoform profile)” value in the test on PAK1, PAK2, PAK3, PAK-4 was “mixed PAK1/PAK-4 inhibitor”.

On to `CN1CCN(c2ccc(Nc3nccc(-c4ccc(NCCN)nc4)n3)cc2)CC1.Cl` [Compound 94, N-(5-{2-[4-(4-Methyl-piperazin-1-yl)-phenylamino]-pyrimidin-4-yl}-pyridin-2-yl)-ethane-1,2-diamine hydrochloride], for which the IC50 is 1000 to 10000 nM on PAK2, less than 1000 nM on PAK4, less than 1000 nM at PAK1 and 1000 to 10000 nM at PAK3. The “PAK inhibitor type (isoform profile)” value in the test with PAK1, PAK2, PAK3, PAK-4 is on record as “mixed PAK1/PAK-4 inhibitor”.
